Assay results: US20240083845A1 (priority 2020, published 2024)

Each compound was assayed against SARS-CoV-2 Mpro (Severe acute respiratory syndrome coronavirus 2, UniProt P0DTD1) (assay: SARS-CoV-2 Mpro enzyme assay (FRET)). Settings: FRET substrate Dabcyl-KTSAVLQSGFRKM-E(Edans)-Amide, 20 nM enzyme, 30 min preincubation at 30° C., mean n=2; read-out: SARS-CoV-2 Mpro enzyme assay pKi (converted).
Assay type: biochemical

Point of comparison: `NC(=O)C(=O)C(CC1CCCC1)NC(=O)[C@H](CC1CC1)NC(=O)/C=C/c1ccc(Cl)cc1F` (stereo partly drawn) [Example 7, 3-((S)-2-((E)-3-(4-chloro-2-fluorophenyl)acrylamido)-3-cyclopropylpropanamido)-4-cyclopentyl-2-oxobutanamide], Ki 7.94 µM. Against it:
- CC(C)(C)C[C@H](NC(=O)/C=C/c1ccc(Cl)cc1F)C(=O)NC(C[C@@H]1CCNC1=O)C(=O)C(=O)NC1CC1 (stereo partly drawn) [Example 11, (2S)-2-((E)-3-(4-chloro-2-fluorophenyl)acrylamido)-N-(4-(cyclopropylamino)-3,4-dioxo-1-((S)-2-oxopyrrolidin-3-yl)butan-2-yl)-4,4-dimethylpentanamide] — 13000-fold higher, 100000 µM
- CC[C@H](CC(=O)N[C@@H](CC(C)(C)C)C(=O)NC(C[C@@H]1CCNC1=O)C(=O)C(=O)NC1CC1)c1ccccc1 (single isomer, unassigned) [Example 15] — 790-fold lower, 0.01 µM
- O=C(CCc1ccc(Cl)cc1Cl)N[C@@H](CC1CC1)C(=O)NC(C[C@@H]1CCNC1=O)C(=O)C(=O)NC1CC1 (stereo partly drawn) [Example 30, N-cyclopropyl-3-((S)-3-cyclopropyl-2-(3-(2,4-dichlorophenyl)propanamido)propanamido)-2-oxo-4-((S)-2-oxopyrrolidin-3-yl)butanamide] — 400-fold lower, 0.02 µM
- CC[C@@H](CC(=O)N[C@@H](CC1CC1)C(=O)NC(C[C@@H]1CCNC1=O)C(=O)C(=O)NC1CC1)c1ccccc1 (stereo partly drawn) [Example 32, (3 S)-N-((2S)-3-cyclopropyl-1-((4-(cyclopropylamino)-3,4-dioxo-1-((S)-2-oxopyrrolidin-3-yl)butan-2-yl)amino)-1-oxopropan-2-yl)-3-phenylpentanamide] — 630-fold lower, 0.0126 µM
- O=C(/C=C/c1ccc(Cl)cc1F)N[C@@H](CC1CCC1)C(=O)NC(C[C@@H]1CCNC1=O)C(=O)C(=O)NC1CC1 (stereo partly drawn) [Example 31, 3-((S)-2-((E)-3-(4-chloro-2-fluorophenyl)acrylamido)-3-cyclobutylpropanamido)-N-cyclopropyl-2-oxo-4-((S)-2-oxopyrrolidin-3-yl)butanamide] — 320-fold lower, 0.0251 µM
- CCNC(=O)C(=O)C(C[C@@H]1CCNC1=O)NC(=O)[C@H](CC(C)(C)C)NC(=O)/C=C/c1ccc(Cl)cc1Cl (stereo partly drawn) [Example 26, (2S)-2-((E)-3-(2,4-dichlorophenyl)acrylamido)-N-(4-(ethylamino)-3,4-dioxo-1-((S)-2-oxopyrrolidin-3-yl)butan-2-yl)-4,4-dimethylpentanamide] — 790-fold lower, 0.01 µM
- CC(C)C[C@H](NC(=O)/C=C/c1ccc(Cl)cc1F)C(=O)NC(C[C@@H]1CCNC1=O)C(=O)C(N)=O (stereo partly drawn) [Example 18, (2S)-N-(4-amino-3,4-dioxo-1-((S)-2-oxopyrrolidin-3-yl)butan-2-yl)-2-((E)-3-(4-chloro-2-fluorophenyl)acrylamido)-4-methylpentanamide] — 630-fold lower, 0.0126 µM
- CC[C@H](CC(=O)N[C@@H](CC1CC1)C(=O)NC(C[C@@H]1CCNC1=O)C(=O)C(=O)NC1CC1)c1ccccc1 (stereo partly drawn) [Example 33, (3R)-N-((2S)-3-cyclopropyl-1-((4-(cyclopropylamino)-3,4-dioxo-1-((S)-2-oxopyrrolidin-3-yl)butan-2-yl)amino)-1-oxopropan-2-yl)-3-phenylpentanamide] — 320-fold lower, 0.0251 µM
- NC(=O)C(=O)C(C[C@@H]1CCNC1=O)NC(=O)[C@H](CC1CC1)NC(=O)/C=C/c1ccccc1 (stereo partly drawn) [Example 2, 3-((S)-2-cinnamamido-3-cyclopropylpropanamido)-2-oxo-4-((S)-2-oxopyrrolidin-3-yl)butanamide] — 400-fold lower, 0.02 µM
- NC(=O)C(=O)C(C[C@@H]1CCNC1=O)NC(=O)[C@H](CC1CC1)NC(=O)/C=C/c1ccc(Cl)cc1Cl (stereo partly drawn) [Example 20, 3-((S)-3-cyclopropyl-2-((E)-3-(2,4-dichlorophenyl)acrylamido)propanamido)-2-oxo-4-((S)-2-oxopyrrolidin-3-yl)butanamide] — 79-fold lower, 0.1 µM
- O=C(/C=C/c1ccc(Cl)cc1F)N[C@@H](CC1CC1)C(=O)NC(C[C@@H]1CCNC1=O)C(=O)C(=O)NC1CC1 (stereo partly drawn) [Example 21, 3-((S)-2-((E)-3-(4-chloro-2-fluorophenyl)acrylamido)-3-cyclopropylpropanamido)-N-cyclopropyl-2-oxo-4-((S)-2-oxopyrrolidin-3-yl)butanamide] — 1000-fold lower, 0.00794 µM
- CC(C)(C)C[C@H](NC(=O)/C=C/c1ccc(Cl)cc1Cl)C(=O)NC(C[C@@H]1CCNC1=O)C(=O)C(=O)NC1CC1 (stereo partly drawn) [Example 10, (2S)-N-(4-(Cyclopropylamino)-3,4-dioxo-1-((S)-2-oxopyrrolidin-3-yl)butan-2-yl)-2-((E)-3-(2,4-dichlorophenyl)acrylamido)-4,4-dimethylpentanamide] — 1300-fold lower, 0.00631 µM
- CC(C)(C)NC(=O)C(=O)C(C[C@@H]1CCNC1=O)NC(=O)[C@H](CC1CC1)NC(=O)/C=C/c1ccc(Cl)cc1F (stereo partly drawn) [Example 5, N-(tert-butyl)-3-((S)-2-((E)-3-(4-chloro-2-fluorophenyl)acrylamido)-3-cyclopropylpropanamido)-2-oxo-4-((S)-2-oxopyrrolidin-3-yl)butanamide] — 16-fold lower, 0.501 µM
- NC(=O)C(=O)C(C[C@@H]1CCNC1=O)NC(=O)[C@H](CC1CC1)NC(=O)CCc1ccccc1 (stereo partly drawn) [Example 8, 3-((S)-3-cyclopropyl-2-(3-phenylpropanamido)propanamido)-2-oxo-4-((S)-2-oxopyrrolidin-3-yl)butanamide] — 160-fold lower, 0.0501 µM
- CC(C)(C)C[C@H](NC(=O)C[C@H](c1ccccc1)C(F)(F)F)C(=O)NC(C[C@@H]1CCNC1=O)C(=O)C(=O)NC1CC1 (single isomer, unassigned) [Example 17] — 630-fold lower, 0.0126 µM
- O=C(/C=C/c1ccc(Cl)cc1Cl)N[C@@H](CC1CC1)C(=O)NC(C[C@@H]1CCNC1=O)C(=O)C(=O)NC1CC1 (stereo partly drawn) [Example 25, N-cyclopropyl-3-((S)-3-cyclopropyl-2-((E)-3-(2,4-dichlorophenyl)acrylamido)propanamido)-2-oxo-4-((S)-2-oxopyrrolidin-3-yl)butanamide] — 790-fold lower, 0.01 µM
- CCNC(=O)C(=O)C(C[C@@H]1CCNC1=O)NC(=O)[C@H](CC(C)(C)C)NC(=O)/C=C/c1ccc(Cl)cc1F (stereo partly drawn) [Example 23, (2S)-2-((E)-3-(4-chloro-2-fluorophenyl)acrylamido)-N-(4-(ethylamino)-3,4-dioxo-1-((S)-2-oxopyrrolidin-3-yl)butan-2-yl)-4,4-dimethylpentanamide] — 630-fold lower, 0.0126 µM
- NC(=O)C(=NO)C(C[C@@H]1CCNC1=O)NC(=O)[C@H](CC1CC1)NC(=O)/C=C/c1ccc(Cl)cc1F (stereo partly drawn) [Example 4, 3-((S)-2-((E)-3-(4-chloro-2-fluorophenyl)acrylamido)-3-cyclopropylpropanamido)-2-(hydroxyimino)-4-((S)-2-oxopyrrolidin-3-yl)butanamide] — 7.9-fold lower, 1 µM
- C[C@H](CC(=O)N[C@@H](CC(C)(C)C)C(=O)NC(C[C@@H]1CCNC1=O)C(=O)C(=O)NC1CC1)c1ccccc1 (stereo partly drawn) [Example 13, (2S)-N-(4-(cyclopropylamino)-3,4-dioxo-1-((S)-2-oxopyrrolidin-3-yl)butan-2-yl)-4,4-dimethyl-2-((R)-3-phenylbutanamido)pentanamide] — 500-fold lower, 0.0158 µM
- CC(C)(C)C[C@H](NC(=O)C[C@@H](c1ccccc1)C(F)(F)F)C(=O)NC(C[C@@H]1CCNC1=O)C(=O)C(=O)NC1CC1 (single isomer, unassigned) [Example 16] — 400-fold lower, 0.02 µM
- NC(=O)C(=O)C(CC1CC1)NC(=O)[C@H](CC1CC1)NC(=O)/C=C/c1ccc(Cl)cc1F (stereo partly drawn) [Example 6, 3-((S)-2-((E)-3-(4-chloro-2-fluorophenyl)acrylamido)-3-cyclopropylpropanamido)-4-cyclopropyl-2-oxobutanamide] — 1.6-fold lower, 5.01 µM
- CCNC(=O)C(=O)C(C[C@@H]1CCNC1=O)NC(=O)[C@H](CC1CC1)NC(=O)/C=C/c1ccc(Cl)cc1Cl (stereo partly drawn) [Example 24, 3-((S)-3-cyclopropyl-2-((E)-3-(2,4-dichlorophenyl)acrylamido)propanamido)-N-ethyl-2-oxo-4-((S)-2-oxopyrrolidin-3-yl)butanamide] — 630-fold lower, 0.0126 µM
- NC(=O)C(=O)C(C[C@@H]1CCNC1=O)NC(=O)[C@H](CC1CC1)NC(=O)/C=C/c1ccc(Cl)cc1F (stereo partly drawn) [Example 1, 3-((S)-2-((E)-3-(4-chloro-2-fluorophenyl)acrylamido)-3-cyclopropylpropanamido)-2-oxo-4-((S)-2-oxopyrrolidin-3-yl)butanamide] — 630-fold lower, 0.0126 µM
- CC(C)(C)C[C@H](NC(=O)/C=C/c1ccc(Cl)cc1Cl)C(=O)NC(C#N)C[C@@H]1CCNC1=O (stereo partly drawn) [Example 9, (2S)-N-(1-Cyano-2-((S)-2-oxopyrrolidin-3-yl)ethyl)-2-((E)-3-(2,4-dichlorophenyl)acrylamido)-4,4-dimethylpentanamide] — 20-fold lower, 0.398 µM
- O=C(N[C@@H](CC1CC1)C(=O)NC(C[C@@H]1CCNC1=O)C(=O)C(=O)NC1CC1)OCc1ccccc1 (stereo partly drawn) [Example 29, benzyl ((2S)-3-cyclopropyl-1-((4-(cyclopropylamino)-3,4-dioxo-1-((S)-2-oxopyrrolidin-3-yl)butan-2-yl)amino)-1-oxopropan-2-yl)carbamate] — 500-fold lower, 0.0158 µM
- C[C@@H](CC(=O)N[C@@H](CC(C)(C)C)C(=O)NC(C[C@@H]1CCNC1=O)C(=O)C(=O)NC1CC1)c1ccccc1 (stereo partly drawn) [Example 12, (2S)-N-(4-(cyclopropylamino)-3,4-dioxo-1-((S)-2-oxopyrrolidin-3-yl)butan-2-yl)-4,4-dimethyl-2-((S)-3-phenylbutanamido)pentanamide] — 500-fold lower, 0.0158 µM
- CC[C@@H](CC(=O)N[C@@H](CC(C)(C)C)C(=O)NC(C[C@@H]1CCNC1=O)C(=O)C(=O)NC1CC1)c1ccccc1 (single isomer, unassigned) [Example 14] — 1000-fold lower, 0.00794 µM
- CCNC(=O)C(=O)C(C[C@@H]1CCNC1=O)NC(=O)[C@H](CC1CC1)NC(=O)/C=C/c1ccc(Cl)cc1F (stereo partly drawn) [Example 19, 3-((S)-2-((E)-3-(4-chloro-2-fluorophenyl)acrylamido)-3-cyclopropylpropanamido)-N-ethyl-2-oxo-4-((S)-2-oxopyrrolidin-3-yl)butanamide] — 630-fold lower, 0.0126 µM
- CC(C)(C)C[C@H](NC(=O)/C=C/c1ccc(Cl)cc1F)C(=O)NC(C[C@@H]1CCNC1=O)C(=O)C(N)=O (stereo partly drawn) [Example 22, (2S)-N-(4-amino-3,4-dioxo-1-((S)-2-oxopyrrolidin-3-yl)butan-2-yl)-2-((E)-3-(4-chloro-2-fluorophenyl)acrylamido)-4,4-dimethylpentanamide] — 1300-fold lower, 0.00631 µM
